Tests used:
Assay type in all cases: cell-based, human
HeLa cells [1] = test: Combination of CTR-21 with ABT-737, combinatorial index
Procedure: (§1) (a) CTR-21 kills HeLa in a synergistic manner with ABT-737. Cells were treated with 0.78 nM CTR-21 and indicated concentrations of ABT-737. CI denotes combinatorial index, calculated according to described previously. (b) CTR-21 effectively kills paclitaxel-resistant cells when combined with paclitaxel. The paclitaxel-resistant MDA-MB-231TaxR cells were treated with 23 nM of CTR-21 and indicated concentrations of paclitaxel. TEXT PRINTED IN THE PICTURE: (a) Combo: HeLa: CI: 0.93 (ABT-737 (12.5 μM); CTR-21 (0.78 nM)); HeLa: CI: 0.94 (ABT-737 (6.25 μM); CTR-21 (0.78 nM)); HeLa: CI: 0.81 (ABT-737 (3.125 μM); CTR-21 (0.78 nM)); HeLa: CI: 0.48 (ABT-737 (1.5625 μM); CTR-21 (0.78 nM)) | (b) Combo: MDA-MB-231-TaxR: CI: 0.56 (Paclitaxel (75 nM); CTR-21 (23 nM)); MDA-MB-231-TaxR: CI: 0.38 (Paclitaxel (37.5 nM); CTR-21 (23 nM)); MDA-MB-231-TaxR: CI: 0.35 (Paclitaxel (18.75 nM); CTR-21 (23 nM)) DOUBTS OF THE COPYIST ABOUT THIS PICTURE: Each CI value is printed over a group of three bars (the two single agents and Combo). It is assigned here to the Combo, with the concentrations of the two agents given as conditions.

MDA-MB-231TaxR cells = test: Combination of CTR-21 with paclitaxel, combinatorial index; conditions: paclitaxel 18.75 nM + CTR-21 23 nM
Procedure: as §1

HeLa cells [2] = test: Cell cycle analysis by flow cytometry
Procedure: Figure 5 CTR-21 arrests cells at G2/M, eventually leading to cell death by apoptosis. (a) Effects of CTR-21 on the cell cycle progression of HeLa and E112 cells. […] (b) Cell morphology of CTR-21 arrested cells. HeLa cells were treated with 30 nM of CTR-21 for 12 h, fixed with methanol and immunostained with α-tubulin or γ-tubulin, and counterstained with DAPI. Bar = […]. (c) CTR-21 promotes PARP cleavage. […] GAPDH was used as a loading control.
Cell cycle progression was determined using flow cytometry. UKRV-Mel-38 and HeLa cells were plated onto 10 cm plate at a density of 0.5 million and treated them with or without the compounds the following day for 12, 24 or 48 h. Cells were then harvested and centrifuged at 1000 rpm for 5 min, washed in PBS and then fixed with ice-cold ethanol (70%) for at least 24 h at − 20 °C. The cells were centrifuged, re-suspended in PBS solution, followed by centrifugation. The cell pellet was then stained with 100 μg/mL propidium iodide (PI) and 100 μg/mL RNase A in distilled water for at least 1 h. DNA content was measured using a Beckmann Coulter Cytomics FC500 (Beckman Coulter, Fullerton, CA), and the proportion of cell populations in G0/G1, S, and G2/M phases of cell cycle was calculated on the basis of DNA distribution histograms using CXP software (Beckman Coulter, Fullerton, CA).

Compound | CI (combinatorial index) (HeLa cells [1]; ABT-737 1.5625 μM + CTR-21 0.78 nM) | combination index (CI) (HeLa cells [1]; CTR-21 0.78 nM with low doses of ABT-737) | CI (combinatorial index) (MDA-MB-231TaxR cells) | cell cycle effect (HeLa cells [2]; HeLa, 30 nM, by 12 h, maintained after 24 h) | cell cycle effect (HeLa cells [2]; 3× GI50, 12 or 24 h, HeLa and UKRV-Mel-38 (Supplemental Fig. S11))
COc1ccccc1C(=O)/C=C/c1cc2cccc(OC)c2[nH]c1=O [CTR-21, (E)-8-methoxy-3-(3-(2-methoxyphenyl)-3-oxoprop-1-enyl) quinolin-2(1H)-one] | 0.48 | less than 1.0 | 0.35 | arrest in G2/M | 
CCOc1ccccc1C(=O)/C=C/c1cc2ccccc2[nH]c1=O [CTR-32, (E)-3-(3-(2-ethoxyphenyl)-3-oxoprop-1-enyl)quinolin-2(1H)-one] |  |  |  |  | arrests the cells in G2/M
